One test has as its system Puccinia recondita. The test can be described thus: Curative activity against Puccinia recondita on wheat (wheat leaf rust). The format is in vivo. Conditions: wheat 'Kanzler', 7 days. How it is done: (§1) The active compounds, separately or together, were formulated as a 10% strength emulsion in a mixture of 70% by weight of cyclohexanone, 20% by weight of Nekanil® LN (Lutensol® AP6, wetting agent having emulsifying and dispersing action based on ethoxylated alkylphenols) and 10% by weight of Emulphor® EL (Emulan® EL, emulsifier based on ethoxylated fatty alcohols) and correspondingly diluted with water to the desired concentration.
(§2) Evaluation was carried out by determining the infected leaf areas in percent. These percentages were converted into efficacies. The efficacy (W) was calculated as follows using Abbot's formula: […]
α corresponds to the fungal infection of the treated plants in % and β corresponds to the fungal infection of the untreated (control) plants in % An efficacy of 0 means that the infection level of the treated plants corresponds to that of the untreated control plants; an efficacy of 100 means that the treated plants were not infected.
The expected efficacies of the mixtures of the active compounds were determined using Colby's formula [R. S. Colby, Weeds 15, 20-22 (1967)] and compared with the observed efficacies.
Colby's formula: E=x+y−x·y/100
E expected efficacy, expressed in % of the untreated control, when using the mixture of the active compounds A and B at the concentrations a and b x efficacy, expressed in % of the untreated control, when using active compound A at a concentration of a y efficacy, expressed in % of the untreated control, when using active compound B at a concentration of b.
Leaves of potted wheat seedlings of the cultivar “Kanzler” were dusted with spores of leaf rust (Puccinia recondita). Thereafter, the pots were kept for 24 hours in a chamber of high atmospheric humidity (90 to 95%) and at 20-22° C. During this time, the spores germinated and the germinal tubes penetrated into the leaf tissue. […] Thereafter, the extent of the rust fungus development on the leaves was determined. […]

Test [1] concerns mildew of wheat (Blumeria graminis forma specialis tritici). The test can be described thus: Activity against mildew of wheat (protective, potted wheat seedlings). The format is in vivo. Conditions: wheat 'Kanzler', 7 days. How it is done: as §1, §2
The expected efficacies of the mixtures of the active compounds were determined using Colby's formula [R. S. Colby, Weeds 15, 20-22 (1967)] and compared with the observed efficacies. […]
Leaves of potted wheat seedlings of the culivar “Kanzler” were sprayed to run off point with an aqueous preparation of active compound which had been prepared from a stock solution made of 10% of active compound, 85% of cyclohexanone and 5% of emulsifier and, 24 hours after the spray coating had dried on, dusted with spores of mildew of wheat (Blumeria graminis forma specialis tritici). […] After 7 days, the extent of the mildew development was determined visually in % infection of the total leaf area. […]

Experimental findings from patent US6503932B2, “Fungicidal mixtures based on amide compounds” (BASF Aktiengesellschaft, priority 2000, dated 2003) are described below.

For spiroxamine [spiroxamine (II)], the “Efficacy in % of the untreated control” value in the test on Puccinia recondita (1.5 ppm in the spray liquor) came out at 0%; in the test on Puccinia recondita (3 ppm in the spray liquor), 0%; in the test with Puccinia recondita (12.5 ppm in the spray liquor) it was 30%; in test [1] (1.5 ppm in the spray liquor) it was 0%; in test [1] (3 ppm in the spray liquor) it was 20%.
